The text below walks through data of patent US5457105A, “Quinazoline derivatives useful for treatment of neoplastic disease” (Zeneca Limited, priority 1992, dated 1995).

For assay [1], the system named is liver hepatocyte growth caused by the administration of the growth factor TGFα. The assay can be described thus: Test (c): in vivo inhibition of TGFα-stimulated liver hepatocyte growth in male rats. The arrangement: species or system rat. To be noted: usually orally, TGFα 400 μg/kg subcutaneously, inhibition of BrdU uptake, approximate ED50. The procedure: Cell-growth in the control and test animals is determined as follows: On the morning of the day after the dosing of the test compound (or 0.5% polysorbate in the control group), the animals are dosed with bromodeoxyuridine (BrdU; 100 mg/kg intraperitoneally). The animals are killed four hours later and the livers are excised. […] Further tests were carried out using a range of doses of the test compounds to allow the calculation of an approximate ED50 value for the inhibition of liver hepatocyte proliferation as determined by inhibition of the uptake of BrdU.

Another assay addresses T1, receptor tyrosine kinase (Homo sapiens, UniProt P00533).
T1 construct: obtained in partially purified form from A-431 cells; endogenous in cells; host or cells: A-431 cells (human vulval carcinoma); detergent-solubilised membrane fraction
Briefly: Test (a): in vitro inhibition of the enzyme receptor tyrosine kinase (from A-431 cells). The class given is biochemical. To be noted: EGF, 25° C., 10 minutes. The procedure: (a) An in vitro assay which determines the ability of a test compound to inhibit the enzyme receptor tyrosine kinase. Receptor tyrosine kinase was obtained in partially purified form from A-431 cells (derived from human vulval carcinoma) by procedures related to those described by Carpenter et al., J. Biol. Chem., 1979, 254, 4884, Cohen et al., J. Biol. Chem., 1982, 257, 1523 and by Braun et al., J. Biol. Chem., 1984, 259, 2051.
A-431 cells were grown to confluence using Dulbecco's modified Eagle's medium (DMEM) containing 5% fetal calf serum (FCS). The obtained cells were homogenised in a hypotonic borate/EDTA buffer at pH 10.1. The homogenate was centrifuged at 400 g for 10 minutes at 0°-4° C. The supernatant was centrifuged at 25,000 g for 30 minutes at 0°-4° C. The pelleted material was suspended in 30 mM Hepes buffer at pH 7.4 containing 5% glycerol, 4 mM benzamidine and 1% Triton X-100, stirred for 1 hour at 0°-4° C., and recentrifuged at 100,000 g for 1 hour at 0°-4° C. The supernatant, containing solubilised receptor tyrosine kinase, was stored in liquid nitrogen.
For test purposes 40 μl of the enzyme solution so obtained was added to a mixture of 400 μl of a mixture of 150 mM Hepes buffer at pH 7.4, 500 μM sodium orthovanadate, 0.1% Triton X-100, 10% glycerol, 200 μl water, 80 μl of 25 mM DTT and 80 µl of a mixture of 12.5 mM manganese chloride, 125 mM magnesium chloride and distilled water. There was thus obtained the test enzyme solution.
Each test compound was dissolved in dimethylsulphoxide (DMSO) to give a 50 mM solution which was diluted with 40 mM Hepes buffer containing 0.1% Triton X-100, 10% glycerol and 10% DMSO to give a 500 μM solution. Equal volumes of this solution and a solution of epidermal growth factor (EGF; 20 μg/ml) were mixed.
[γ-^32 P]ATP (3000 Ci/mM, 250 μCi) was diluted to a volume of 2 ml by the addition of a solution of ATP (100 μM) in distilled water. An equal volume of a 4 mg/ml solution of the peptide Arg-Arg-Leu-Ile-Glu-Asp-Ala-Glu-Tyr-Ala-Ala-Arg-Gly in a mixture of 40 mM Hepes buffer at pH 7.4, 0.1% Triton X-100 and 10% glycerol was added.
The test compound/EGF mixture solution (5 μl) was added to the test enzyme solution (10 μl) and the mixture was incubated at 0°-4° C. for 30 minutes. The ATP/peptide mixture (10 μl) was added and the mixture was incubated at 25° C. for 10 minutes. The phosphorylation reaction was terminated by the addition of 5% trichloroacetic acid (40 μl) and bovine serum albumin (BSA; 1 mg/ml, 5 μl). The mixture was allowed to stand at 4° C. for 30 minutes and then centrifuged. […] Radioactivity present in the filter paper was measured using a liquid scintillation counter (Sequence A). […]
The extent of inhibition was then determined at a range of concentrations of test compound to give an IC50 value.

The subject of assay [2] is human naso-pharyngeal cancer cell line KB. Briefly: Test (b): in vitro inhibition of growth of the human naso-pharyngeal cancer cell line KB. The class given is cell-based. To be noted: KB cells, EGF (10 ng/ml), 3 days, MTT. As to the method: (b) An in vitro assay which determines the ability of a test compound to inhibit the growth of the human naso-pharyngeal cancer cell line KB.
KB cells were seeded into wells at a density of 1×10^4 -1.5×10^4 cells per well and grown for 24 hours in DMEM supplemented with 5% FCS (charcoal-stripped). Cell growth was determined after incubation for 3 days by the extent of metabolism of MTT tetrazolium dye to furnish a bluish colour. Cell growth was then determined in the presence of EGF (10 ng/ml) or in the presence of EGF (10 ng/ml) and a test compound at a range of concentrations. An IC50 value could then be calculated.

Assay [3] concerns human mammary carcinoma which expresses epidermal growth factor (EGF) receptor tyrosine kinase. To be noted: athymic nude mice; EGF receptor tyrosine kinase expressing; Toi et al. 1990; cited from earlier work.
Assay [4] concerns another carcinoma which does not express EGF receptor tyrosine kinase. To be noted: carcinoma not expressing EGF receptor tyrosine kinase; Toi et al. 1990; cited from earlier work.

T1 sequence (P00533 25-1210): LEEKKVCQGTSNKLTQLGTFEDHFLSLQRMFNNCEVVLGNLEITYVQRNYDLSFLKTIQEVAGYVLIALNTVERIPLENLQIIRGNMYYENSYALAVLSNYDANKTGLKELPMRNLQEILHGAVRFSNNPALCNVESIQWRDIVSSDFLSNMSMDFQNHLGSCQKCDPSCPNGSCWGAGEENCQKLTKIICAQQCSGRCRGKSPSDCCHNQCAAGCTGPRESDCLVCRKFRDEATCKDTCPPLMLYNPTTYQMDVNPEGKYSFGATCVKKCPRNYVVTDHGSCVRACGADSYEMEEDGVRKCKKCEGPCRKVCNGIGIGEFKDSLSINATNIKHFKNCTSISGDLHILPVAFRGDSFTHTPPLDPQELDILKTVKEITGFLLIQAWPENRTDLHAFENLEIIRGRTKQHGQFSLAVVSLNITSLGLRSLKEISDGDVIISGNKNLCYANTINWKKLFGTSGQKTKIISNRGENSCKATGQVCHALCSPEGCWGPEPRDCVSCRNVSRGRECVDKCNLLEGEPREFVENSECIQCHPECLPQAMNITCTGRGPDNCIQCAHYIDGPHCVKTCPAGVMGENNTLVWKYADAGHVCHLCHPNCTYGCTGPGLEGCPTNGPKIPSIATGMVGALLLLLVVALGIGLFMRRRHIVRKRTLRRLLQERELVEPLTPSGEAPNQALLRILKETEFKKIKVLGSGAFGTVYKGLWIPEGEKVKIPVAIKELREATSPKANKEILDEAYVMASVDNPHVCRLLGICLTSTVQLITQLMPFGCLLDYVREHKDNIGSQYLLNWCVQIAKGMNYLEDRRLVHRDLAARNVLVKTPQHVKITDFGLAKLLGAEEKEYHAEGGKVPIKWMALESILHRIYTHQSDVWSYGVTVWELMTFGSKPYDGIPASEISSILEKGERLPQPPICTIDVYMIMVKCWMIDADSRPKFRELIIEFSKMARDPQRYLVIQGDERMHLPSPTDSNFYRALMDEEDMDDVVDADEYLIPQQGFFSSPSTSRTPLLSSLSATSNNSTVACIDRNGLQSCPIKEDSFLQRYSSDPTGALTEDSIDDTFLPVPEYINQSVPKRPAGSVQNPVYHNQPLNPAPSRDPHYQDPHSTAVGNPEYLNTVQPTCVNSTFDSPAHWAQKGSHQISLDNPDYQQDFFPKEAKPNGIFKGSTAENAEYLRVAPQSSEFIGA

With `COc1cc2ncnc(Nc3cccc(C)c3)c2cc1OC` [6,7-dimethoxy-4-(3'-methylanilino)quinazoline], in assay [1] (Rattus norvegicus, Hepatocyte, po), the ED50 was < 5 mg/kg. The IC50 on receptor tyrosine kinase was determined as 5 nM; in assay [2] (Homo sapiens, 72 h), 50 nM.
As for `COc1cc2ncnc(Nc3cccc(C(F)(F)F)c3)c2cc1OC` [6,7-dimethoxy-4-(3'-trifluoromethylanilino)quinazoline], the IC50 at receptor tyrosine kinase is 10 nM; in assay [2] (Homo sapiens, 72 h), 300 nM.
The like results for `CC(=O)Nc1ccc2ncnc(Nc3cccc(C)c3)c2c1` [6-acetamido-4-(3'-methylanilino)quinazoline] were, in that order, 10 nM and 650 nM.
Regarding `Cc1cccc(Nc2ncnc3ccc(N)cc23)c1` [6-amino-4-(3'-methylanilino)quinazoline], in assay [1], the “ED50 in Test (c)” value is < 5 mg/kg. The midpoint of inhibition in assay [2], the IC50, lay at 1000 nM.
As for `COc1cc2c(Nc3cccc(C)c3)ncnc2cc1OCCO` [7-(2-hydroxyethoxy)-6-methoxy-4-(3'-methylanilino)quinazoline], the IC50 amounted to 5 nM against receptor tyrosine kinase and 140 nM in assay [2] (Homo sapiens, 72 h).
Take `O=CN/C=C/c1cc(O)ccc1O` [erbstatin]: the “growth of transplanted human mammary carcinoma” value in assay [3] is on record as “specifically attenuates the growth”. Besides, in assay [4], the “growth of another carcinoma” value is listed as “without effect”.

As usually defined, the ED50 is the midpoint of the dose-response relation. Read a low ED50 as an effect at a small dose. Usually IC50 stands for the point on the concentration scale where inhibition reaches its midpoint. A low value points to inhibition by little substance.
